Tests used:
Dengue virus type 2 = test: Dengue virus infection treated with tetracycline compounds (Example 4): mortality; assay type: in vivo, BALB/c mice; details: for % (survival): 20 mice, 20 mg/kg
TNF-α and IL-1β = test: Serum TNF and IL-1 in Dengue infected mice (Example 4); assay type: in vivo, BALB/c mice; details: for level of the cytokines in the serum versus control A2 group: 20 mg/kg twice per day from day -3 until day 8
Mononuclear human cells = test: In vitro activation of mononuclear human cells by antibiotics: IL-1RA and sTNFrI production; assay type: cell-based; details: 0.06 mg/ml, activation for 2 hours
IL-1RA and sTNFrl = IL-1RA and sTNFrl in human donor serum after oral antibiotic stimulation; assay type: in vivo
[1] = 20 mg/kg intramuscularly twice per day from day -3 until day 8
[2] = 20 mg/kg intramuscularly twice per day from day -3 until day 8, listed as terramycine
[3] = day 0, 20 mg/kg intramuscularly twice per day from day -3 until day 8
[4] = day 1, 20 mg/kg intramuscularly twice per day from day -3 until day 8
[5] = day 3, 20 mg/kg intramuscularly twice per day from day -3 until day 8
[6] = day 5, 20 mg/kg intramuscularly twice per day from day -3 until day 8
[7] = day 6, 20 mg/kg intramuscularly twice per day from day -3 until day 8
[8] = day 7, 20 mg/kg intramuscularly twice per day from day -3 until day 8
[9] = day 8, 20 mg/kg intramuscularly twice per day from day -3 until day 8
[10] = day 12, 20 mg/kg intramuscularly twice per day from day -3 until day 8
[11] = day -1, 20 mg/kg intramuscularly twice per day from day -3 until day 8
[12] = 150 mg orally twice a day, blood taken on the second and third day after beginning
[13] = after stimulation, 2 persons, on the 24th hour
[14] = 20 mg/kg orally twice per day from day -3 until day 8
[15] = 20 mg/kg orally twice per day from day -3 until day 8, listed as vibromycine
[16] = day 0, 20 mg/kg orally twice per day from day -3 until day 8
[17] = day 1, 20 mg/kg orally twice per day from day -3 until day 8
[18] = day 3, 20 mg/kg orally twice per day from day -3 until day 8
[19] = day 5, 20 mg/kg orally twice per day from day -3 until day 8
[20] = day 6, 20 mg/kg orally twice per day from day -3 until day 8
[21] = day 7, 20 mg/kg orally twice per day from day -3 until day 8
[22] = day 8, 20 mg/kg orally twice per day from day -3 until day 8
[23] = day 12, 20 mg/kg orally twice per day from day -3 until day 8
[24] = day -1, 20 mg/kg orally twice per day from day -3 until day 8

In the case of `CN(C)[C@@H]1C(O)=C(C(N)=O)C(=O)[C@@]2(O)C(O)=C3C(=O)c4c(O)cccc4[C@@](C)(O)[C@H]3[C@H](O)[C@@H]12` [Terramycine], the m.t.d. (Dengue virus type 2; [1]) is reported as “m.t.d. = 6.53 days”, the m.t.d. (Dengue virus type 2; [2]) is reported as 6.53 days and the “% (survival)” value (Dengue virus type 2; [1]) is reported as “% (survival) 15”. For the same molecule, the “% (survival)” value (Dengue virus type 2; [2]) was 15%, the Survival/total amount (Dengue virus type 2; [3]) was 20/20 and the Survival/total amount (Dengue virus type 2; [4]) was 20/20. The Survival/total amount (Dengue virus type 2; [5]) was 20/20, the Survival/total amount (Dengue virus type 2; [6]) was 19/20 and the Survival/total amount (Dengue virus type 2; [7]) was 11/20. For the same molecule, the Survival/total amount (Dengue virus type 2; [8]) was 6/20, the Survival/total amount (Dengue virus type 2; [9]) was 3/20 and the Survival/total amount (Dengue virus type 2; [10]) was 3/20. For the same molecule, the Survival/total amount (Dengue virus type 2; [11]) was 20/20, the “level of the cytokines in the serum versus control A2 group” value (TNF-α and IL-1β) was “statistically lower” and the “increase of the concentration of IL-1” value (TNF-α and IL-1β; by day 3 of the disease, stayed until day 7, 20 mg/kg intramuscularly twice per day) was 16 fold. For the same molecule, the “increase of the concentration of TNF” value (TNF-α and IL-1β; by day 6 of the disease, 20 mg/kg intramuscularly twice per day) was 2 fold, the IL-1 (TNF-α and IL-1β; [3]) was 7.0 pg/mL and the TNF (TNF-α and IL-1β; [3]) was 17.0 pg/mL. For the same molecule, the IL-1 (TNF-α and IL-1β; [4]) was 21.8 pg/mL, the TNF (TNF-α and IL-1β; [4]) was 15.2 pg/mL and the IL-1 (TNF-α and IL-1β; [5]) was 112.0 pg/mL. It also gave a TNF (TNF-α and IL-1β; [5]) of 25.6 pg/mL, an IL-1 (TNF-α and IL-1β; [6]) of 84.0 pg/mL and a TNF (TNF-α and IL-1β; [6]) of 26.0 pg/mL. For the same molecule, the IL-1 (TNF-α and IL-1β; [7]) was 80.0 pg/mL, the TNF (TNF-α and IL-1β; [7]) was 36.2 pg/mL and the IL-1 (TNF-α and IL-1β; [8]) was 76.0 pg/mL. It also gave a TNF (TNF-α and IL-1β; [8]) of 28.0 pg/mL, an IL-1 (TNF-α and IL-1β; [9]) of 42.0 pg/mL and a TNF (TNF-α and IL-1β; [9]) of 20.0 pg/mL. The IL-1 (TNF-α and IL-1β; [10]) was 16.0 pg/mL, the TNF (TNF-α and IL-1β; [10]) was 18.0 pg/mL and the IL-1 (TNF-α and IL-1β; [11]) was 7.2 pg/mL. The TNF (TNF-α and IL-1β; [11]) was 18.8 pg/mL, the IL-1RA (Mononuclear human cells; 0 hours) was 28 + 1.6 pg/ml and the sTNFrI (Mononuclear human cells; 0 hours) was 18 + 1.4 pg/ml. For the same molecule, the IL-1RA (Mononuclear human cells; 3 hours) was 93 + 6.2 pg/ml, the sTNFrI (Mononuclear human cells; 3 hours) was 313 + 10.4 pg/ml and the IL-1RA (Mononuclear human cells; 6 hours) was 220 + 9.4 pg/ml. For the same molecule, the sTNFrI (Mononuclear human cells; 6 hours) was 224 + 9.2 pg/ml, the IL-1RA (Mononuclear human cells; 24 hours) was 185 + 8.6 pg/ml and the sTNFrI (Mononuclear human cells; 24 hours) was 264 + 9.6 pg/ml.

For `CC1c2cccc(O)c2C(=O)C2=C(O)C3(O)C(=O)C(C(N)=O)=C(O)C(N(C)C)C3C(O)C21` (stereo not shown) [Vybromycine], the “concentration in the human serum of IL-1RA” value (IL-1RA and sTNFrl; [12]) was 184 pg/mL, the “concentration in the human serum of sTNFrl” value (IL-1RA and sTNFrl; [12]) was 950 pg/mL and the “IL-1RA in the donor serum” value (IL-1RA and sTNFrl; [13]) was 126.8 ± 6.8 pg/mL. For the same molecule, the “sTNFrl in the donor serum” value (IL-1RA and sTNFrl; [13]) was 970 ± 28.6 pg/mL, the “IL-1RA in the donor serum” value (IL-1RA and sTNFrl; before the stimulation) was 20 ± 2.2 pg/mL and the “sTNFrl in the donor serum” value (IL-1RA and sTNFrl; before the stimulation) was 22 ± 3.4 pg/mL. The m.t.d. (Dengue virus type 2; [14]) was “m.t.d. = 6.7 days”, the m.t.d. (Dengue virus type 2; [15]) was 6.7 days and the “% (survival)” value (Dengue virus type 2; [14]) was “% (survival) 20”. The “% (survival)” value (Dengue virus type 2; [15]) was 20%, the Survival/total amount (Dengue virus type 2; [16]) was 20/20 and the Survival/total amount (Dengue virus type 2; [17]) was 20/20. For the same molecule, the Survival/total amount (Dengue virus type 2; [18]) was 20/20, the Survival/total amount (Dengue virus type 2; [19]) was 19/20 and the Survival/total amount (Dengue virus type 2; [20]) was 15/20. The Survival/total amount (Dengue virus type 2; [21]) was 5/20, the Survival/total amount (Dengue virus type 2; [22]) was 4/20 and the Survival/total amount (Dengue virus type 2; [23]) was 4/20. The Survival/total amount (Dengue virus type 2; [24]) was 20/20, the “increase of the concentration of TNF” value (TNF-α and IL-1β; 20 mg/kg orally twice per day) was 3 fold and the “level of the cytokines in the serum versus control A2 group” value (TNF-α and IL-1β) was “statistically lower”. The “increase of the concentration of IL-1” value (TNF-α and IL-1β; by day 6 of the infection, 20 mg/kg orally twice per day) was 12 fold, the IL-1 (TNF-α and IL-1β; [16]) was 7.0 pg/mL and the TNF (TNF-α and IL-1β; [16]) was 18.8 pg/mL. For the same molecule, the IL-1 (TNF-α and IL-1β; [17]) was 11.6 pg/mL, the TNF (TNF-α and IL-1β; [17]) was 12.6 pg/mL and the IL-1 (TNF-α and IL-1β; [18]) was 60.0 pg/mL. It also gave a TNF (TNF-α and IL-1β; [18]) of 10.8 pg/mL, an IL-1 (TNF-α and IL-1β; [19]) of 62.0 pg/mL and a TNF (TNF-α and IL-1β; [19]) of 16.0 pg/mL. The IL-1 (TNF-α and IL-1β; [20]) was 84.4 pg/mL, the TNF (TNF-α and IL-1β; [20]) was 34.0 pg/mL and the IL-1 (TNF-α and IL-1β; [21]) was 64.0 pg/mL. The TNF (TNF-α and IL-1β; [21]) was 30.6 pg/mL, the IL-1 (TNF-α and IL-1β; [22]) was 30.0 pg/mL and the TNF (TNF-α and IL-1β; [22]) was 26.0 pg/mL. The IL-1 (TNF-α and IL-1β; [23]) was 17.8 pg/mL, the TNF (TNF-α and IL-1β; [23]) was 22.2 pg/mL and the IL-1 (TNF-α and IL-1β; [24]) was 7.0 pg/mL. It also gave a TNF (TNF-α and IL-1β; [24]) of 20.4 pg/mL.

Reference: US20030092684A1, “Compositions and methods for treating hemorrhagic virus infections and other disorders” (priority 1999, published 2003)
